# Experiment: Pharmacokinetics following single administration in SD rat
# Set-up: species or system SD rats
# Conditions: in vivo, sc, 50 nmol/kg
# Experimental: The compound is administrated to male SD rats (230-268 g, n=3) at a dose of 50.0 nmol/kg (s.c.) or 25.0 nmol/kg (i.v.). […] 30.0 μL of thawed plasma sample is taken. 150 μL of acetonitrile solution (containing 5 ng mL^−1 Verapamil, 50 ng·mL^−1 Glibenclamide, 200 ng·mL^−1 Tolbutamide and 200 ng·mL^−1 Diclofenac) are added to precipitate protein. The mixture is vortexed for 5 minutes, and centrifuged at 3700 rpm for 8 minutes. 70.0 μL of the supernatant is taken, into which 70.0 μL of 0.5% aqueous formic acid solution is added. The mixture is vortexed for 5 minutes. 15 μL of the mixture solution is sampled and injected into the LC-MS/MS to determine the drug concentration in plasma. 20.0 μL of thawed plasma sample is taken. 60 μL of acetonitrile solution (containing 5 ng mL^−1 Verapamil, 50 ng·mL^−1 Glibenclamide, 200 ng·mL^−1 Tolbutamide and 200 ng·mL^−1 Diclofenac) are added to precipitate protein. […] The mixture is vortexed for 10 minutes. 10.0 μL of the mixture solution is sampled and injected into the LC-MS/MS to determine the drug concentration in plasma. 30.0 μL of thawed plasma sample is taken. 150 μL of acetonitrile solution (containing 5 ng mL^−1 Verapamil, 50 ng mL^−1 Glibenclamide, 200 ng·mL^−1 Tolbutamide and 200 ng·mL^−1 Diclofenac) are added to precipitate protein. The mixture is vortexed for 5 minutes, and centrifuged at 3700 rpm for 8 minutes. 70.0 μL of the supernatant is taken, into which 70.0 μL of 0.5% aqueous formic acid solution is added. The mixture is vortexed for 5 minutes. 10.0 μL of the mixture solution is sampled and injected into the LC-MS/MS to determine the drug concentration in plasma.
structure (smiles),measurement,value
CC[C@H](C)[C@H](NC(=O)C(C)(C)NC(=O)[C@H](Cc1ccc(O)cc1)NC(=O)[C@H](CC(=O)O)NC(=O)[C@H](CO)NC(=O)[C@@H](NC(=O)C(C)(Cc1ccccc1)NC(=O)[C@@H](NC(=O)CNC(=O)[C@H](CCC(=O)O)NC(=O)C(C)(C)NC(=O)[C@@H](N)Cc1ccc(O)cc1)[C@@H](C)O)[C@@H](C)O)C(=O)NC(C)(C)C(=O)N[C@@H](CC(C)C)C(=O)N[C@@H](CC(=O)O)C(=O)N[C@@H](CCCCN)C(=O)N[C@@H](CCC(N)=O)C(=O)N[C@@H](C)C(=O)N[C@@H](CCC(N)=O)C(=O)N[C@@H](C)C(=O)N[C@@H](CCC(=O)O)C(=O)N[C@@H](Cc1ccccc1)C(=O)N[C@H](C(=O)N[C@@H](CCCCNC(=O)COCCOCCNC(=O)COCCOCCNC(=O)CC[C@H](NC(=O)CCCCCCCCCCCCCCCCCCC(=O)O)C(=O)O)C(=O)N[C@@H](Cc1c[nH]c2ccccc12)C(=O)N[C@@H](CC(C)C)C(=O)N[C@@H](CC(C)C)C(=O)N[C@@H](CCCCN)C(=O)NCC(=O)NCC(=O)N1CCC[C@H]1C(=O)N[C@@H](CO)C(=O)N[C@@H](CO)C(=O)NCC(=O)N[C@@H](C)C(=O)N1CCC[C@H]1C(=O)N1CCC[C@H]1C(=O)N1CCC[C@H]1C(=O)N[C@@H](CO)C(=O)N[C@@H](CCCCN)C(N)=O)C(C)C (stereo partly shown) [P013],MRT inf,29.9 ± 1.33 h
same,MRT last,26.2 ± 0.7 h
CC[C@H](C)[C@H](NC(=O)C(C)(C)NC(=O)[C@H](Cc1ccc(O)cc1)NC(=O)[C@H](CC(=O)O)NC(=O)[C@H](CO)NC(=O)[C@@H](NC(=O)C(C)(Cc1ccccc1)NC(=O)[C@@H](NC(=O)CNC(=O)[C@H](CCC(=O)O)NC(=O)C(C)(C)NC(=O)[C@@H](N)Cc1ccc(O)cc1)[C@@H](C)O)[C@@H](C)O)C(=O)NC(C)(C)C(=O)N[C@@H](CC(C)C)C(=O)N[C@@H](CC(=O)O)C(=O)N[C@@H](CCCCN)C(=O)N[C@@H](CCC(N)=O)C(=O)N[C@@H](C)C(=O)N[C@@H](CCC(N)=O)C(=O)N[C@@H](C)C(=O)N[C@@H](CCC(=O)O)C(=O)N[C@@H](Cc1ccccc1)C(=O)N[C@H](C(=O)N[C@@H](CCCCN)C(=O)N[C@@H](Cc1c[nH]c2ccccc12)C(=O)N[C@@H](CC(C)C)C(=O)N[C@@H](CC(C)C)C(=O)N[C@@H](CCCCNC(=O)COCCOCCNC(=O)COCCOCCNC(=O)CC[C@H](NC(=O)CCCCCCCCCCCCCCCCC(=O)O)C(=O)O)C(=O)NCC(=O)NCC(=O)N1CCC[C@H]1C(=O)N[C@@H](CO)C(=O)N[C@@H](CO)C(=O)NCC(=O)N[C@@H](C)C(=O)N1CCC[C@H]1C(=O)N1CCC[C@H]1C(=O)N1CCC[C@H]1C(=O)N[C@@H](CO)C(=O)N[C@@H](CCCCN)C(N)=O)C(C)C (stereo partly shown) [P008],MRT inf,25.4 h
same,MRT last,21 ± 1.85 h
CC[C@H](C)[C@H](NC(=O)C(C)(C)NC(=O)[C@H](Cc1ccc(O)cc1)NC(=O)[C@H](CC(=O)O)NC(=O)[C@H](CO)NC(=O)[C@@H](NC(=O)C(C)(Cc1ccccc1)NC(=O)[C@@H](NC(=O)CNC(=O)[C@H](CCC(=O)O)NC(=O)C(C)(C)NC(=O)[C@@H](N)Cc1ccc(O)cc1)[C@@H](C)O)[C@@H](C)O)C(=O)NC(C)(C)C(=O)N[C@@H](CC(C)C)C(=O)N[C@@H](CC(=O)O)C(=O)N[C@@H](CCCCN)C(=O)N[C@@H](CCC(N)=O)C(=O)N[C@@H](C)C(=O)N[C@@H](CCC(N)=O)C(=O)N[C@@H](C)C(=O)N[C@@H](CCC(=O)O)C(=O)N[C@@H](Cc1ccccc1)C(=O)N[C@H](C(=O)N[C@@H](CCCCNC(=O)COCCOCCNC(=O)COCCOCCNC(=O)CC[C@H](NC(=O)CCCCCCCCCCCCCCCCC(=O)O)C(=O)O)C(=O)N[C@@H](Cc1c[nH]c2ccccc12)C(=O)N[C@@H](CC(C)C)C(=O)N[C@@H](CC(C)C)C(=O)N[C@@H](CCCCN)C(=O)NCC(=O)NCC(=O)N1CCC[C@H]1C(=O)N[C@@H](CO)C(=O)N[C@@H](CO)C(=O)NCC(=O)N[C@@H](C)C(=O)N1CCC[C@H]1C(=O)N1CCC[C@H]1C(=O)N1CCC[C@H]1C(=O)N[C@@H](CO)C(=O)N[C@@H](CCCCN)C(N)=O)C(C)C (stereo partly shown) [P007],MRT inf,25.7 ± 1.69 h
same,MRT last,21.4 ± 1.87 h
CC[C@H](C)[C@H](NC(=O)C(C)(C)NC(=O)[C@H](Cc1ccc(O)cc1)NC(=O)[C@H](CC(=O)O)NC(=O)[C@H](CO)NC(=O)[C@@H](NC(=O)C(C)(Cc1ccccc1)NC(=O)[C@@H](NC(=O)CNC(=O)[C@H](CCC(=O)O)NC(=O)C(C)(C)NC(=O)[C@@H](N)Cc1ccc(O)cc1)[C@@H](C)O)[C@@H](C)O)C(=O)NC(C)(C)C(=O)N[C@@H](CC(C)C)C(=O)N[C@@H](CC(=O)O)C(=O)N[C@@H](CCCCN)C(=O)N[C@@H](CCC(N)=O)C(=O)N[C@@H](C)C(=O)N[C@@H](CCC(N)=O)C(=O)N[C@@H](C)C(=O)N[C@@H](CCC(=O)O)C(=O)N[C@@H](Cc1ccccc1)C(=O)N[C@H](C(=O)N[C@@H](CCCCN)C(=O)N[C@@H](Cc1c[nH]c2ccccc12)C(=O)N[C@@H](CC(C)C)C(=O)N[C@@H](CC(C)C)C(=O)N[C@@H](CCCCNC(=O)COCCOCCNC(=O)COCCOCCNC(=O)COCCOCCNC(=O)CC[C@H](NC(=O)CCCCCCCCCCCCCCCCC(=O)O)C(=O)O)C(=O)NCC(=O)NCC(=O)N1CCC[C@H]1C(=O)N[C@@H](CO)C(=O)N[C@@H](CO)C(=O)NCC(=O)N[C@@H](C)C(=O)N1CCC[C@H]1C(=O)N1CCC[C@H]1C(=O)N1CCC[C@H]1C(=O)N[C@@H](CO)C(=O)N[C@@H](CCCCN)C(N)=O)C(C)C (stereo partly shown) [P019],MRT inf,18.3 ± 2.76 h
same,MRT last,17.1 ± 2.55 h
CC[C@H](C)[C@H](NC(=O)C(C)(C)NC(=O)[C@H](Cc1ccc(O)cc1)NC(=O)[C@H](CC(=O)O)NC(=O)[C@H](CO)NC(=O)[C@@H](NC(=O)C(C)(Cc1ccccc1)NC(=O)[C@@H](NC(=O)CNC(=O)[C@H](CCC(=O)O)NC(=O)C(C)(C)NC(=O)[C@@H](N)Cc1ccc(O)cc1)[C@@H](C)O)[C@@H](C)O)C(=O)NC(C)(C)C(=O)N[C@@H](CC(C)C)C(=O)N[C@@H](CC(=O)O)C(=O)N[C@@H](CCCCN)C(=O)N[C@@H](CCC(N)=O)C(=O)N[C@@H](C)C(=O)N[C@@H](CCC(N)=O)C(=O)N[C@@H](C)C(=O)N[C@@H](CCC(=O)O)C(=O)N[C@@H](Cc1ccccc1)C(=O)N[C@H](C(=O)N[C@@H](CCCCN)C(=O)N[C@@H](Cc1c[nH]c2ccccc12)C(=O)N[C@@H](CC(C)C)C(=O)N[C@@H](CC(C)C)C(=O)N[C@@H](CCCCNC(=O)COCCOCCNC(=O)COCCOCCNC(=O)CC[C@H](NC(=O)CC[C@H](NC(=O)CC[C@H](NC(=O)CCCCCCCCCCCCCCCCC(=O)O)C(=O)O)C(=O)O)C(=O)O)C(=O)NCC(=O)NCC(=O)N1CCC[C@H]1C(=O)N[C@@H](CO)C(=O)N[C@@H](CO)C(=O)NCC(=O)N[C@@H](C)C(=O)N1CCC[C@H]1C(=O)N1CCC[C@H]1C(=O)N1CCC[C@H]1C(=O)N[C@@H](CO)C(=O)N[C@@H](CCCCN)C(N)=O)C(C)C (stereo partly shown) [P018],MRT inf,33.4 ± 7 h
same,MRT last,28.5 ± 4.45 h

# Reference: patent US12589158B2 (priority 2022, dated 2026)
